Assay results as given in patent publication US11696917B2, “Agent enhancing antitumor effect using pyrazolo[3,4-d]pyrimidine compound” (TAIHO PHARMACEUTICAL CO., LTD., priority 2017, dated 2023).
pIC50: −log10 of the molar value.

Legend:
[1] = system: human stomach cancer cell line NCI-N87; test: Combination of Compound 1 and capecitabine (in vivo), subcutaneous tumor in nude mice; design: species or system nude mouse (BALB/cAJcl-nu/nu); settings: for T/C (%): Day 15
Description: A human stomach cancer cell line NCI-N87 was obtained from American Type Culture Collection (ATCC). The cell line was cultured at 37° C. in a 5% CO2 incubator using RPMI-1640 (containing 4.5 g/L glucose, 10 mM HEPES, and 1 mM sodium pyruvate) (Wako Pure Chemical Industries, Ltd.) medium containing 10% fetal bovine serum (FBS).
The NCI-N87 cells were resuspended at a concentration of 8×10^7 cells/mL in PBS.
The cell suspension was subcutaneously transplanted in an amount of 8×10^6 cells/0.1 mL to the right chest of a 6-week-old nude mouse (BALB/cAJcl-nu/nu, CLEA Japan, Inc.) using a 1 mL syringe for tuberculin and a 25 G injection needle.
Electronic calipers were used in tumor size measurement.

[2] = target: purified recombinant human HER2 protein (Homo sapiens (Human), UniProt P04626); test: Measurement of inhibitory effect on HER2-phosphorylating activity (in vitro); type: biochemical; settings: ATP 6 μM, 25° C., 40 minutes
Chain of purified recombinant human HER2 protein (P04626 23-1255): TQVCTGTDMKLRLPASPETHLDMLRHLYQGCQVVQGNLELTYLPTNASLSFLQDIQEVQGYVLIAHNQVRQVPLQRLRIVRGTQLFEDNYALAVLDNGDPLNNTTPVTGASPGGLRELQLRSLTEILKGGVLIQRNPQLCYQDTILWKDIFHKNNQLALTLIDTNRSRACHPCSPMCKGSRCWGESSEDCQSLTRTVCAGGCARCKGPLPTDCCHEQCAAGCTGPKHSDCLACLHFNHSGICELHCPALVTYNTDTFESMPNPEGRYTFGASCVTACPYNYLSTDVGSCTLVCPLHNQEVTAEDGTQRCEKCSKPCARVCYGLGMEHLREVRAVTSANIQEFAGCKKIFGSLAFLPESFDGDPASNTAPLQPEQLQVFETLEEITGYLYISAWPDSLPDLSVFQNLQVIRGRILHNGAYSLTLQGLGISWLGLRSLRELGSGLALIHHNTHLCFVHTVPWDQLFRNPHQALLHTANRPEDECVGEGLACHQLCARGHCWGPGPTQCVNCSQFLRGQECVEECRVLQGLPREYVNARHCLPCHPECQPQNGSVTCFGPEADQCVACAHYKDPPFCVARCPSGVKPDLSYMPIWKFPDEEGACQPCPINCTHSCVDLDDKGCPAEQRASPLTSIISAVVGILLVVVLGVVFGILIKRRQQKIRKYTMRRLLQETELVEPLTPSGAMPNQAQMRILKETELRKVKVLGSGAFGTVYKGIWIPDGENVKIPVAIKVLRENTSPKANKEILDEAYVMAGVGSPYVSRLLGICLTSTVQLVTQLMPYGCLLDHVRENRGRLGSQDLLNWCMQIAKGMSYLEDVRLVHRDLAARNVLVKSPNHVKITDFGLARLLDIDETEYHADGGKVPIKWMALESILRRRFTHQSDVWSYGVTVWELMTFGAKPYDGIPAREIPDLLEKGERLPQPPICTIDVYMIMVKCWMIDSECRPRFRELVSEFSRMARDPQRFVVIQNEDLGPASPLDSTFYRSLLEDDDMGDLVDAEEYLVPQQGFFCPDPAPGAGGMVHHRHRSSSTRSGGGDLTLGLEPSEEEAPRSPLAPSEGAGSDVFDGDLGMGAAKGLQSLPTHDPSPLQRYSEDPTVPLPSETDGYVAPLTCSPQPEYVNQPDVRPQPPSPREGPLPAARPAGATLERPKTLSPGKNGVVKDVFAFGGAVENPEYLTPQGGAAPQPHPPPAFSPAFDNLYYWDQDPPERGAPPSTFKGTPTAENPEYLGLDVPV
From the text: The purified recombinant human HER2 protein used in the test was purchased from Carna Biosciences, Inc.
For the inhibitory activity measurement of each compound, the synthesis example compound was first serially diluted with dimethyl sulfoxide (DMSO).

[3] = system: HER2-overexpressing human stomach cancer cell line NCI-N87 cells; test: Cytostatic activity against HER2-expressing cell line (NCI-N87), CellTiter-Glo; type: cell-based; settings: 3-day culture; read-out: NCI-N87 cell growth inhibitory activity IC50 value
From the text: (§1) HER2-overexpressing human stomach cancer cell line NCI-N87 cells were suspended in RPMI1640 medium (manufactured by Life Technologies Corp.) containing 10% fetal bovine serum. Meanwhile, EGFR-overexpressing highly activated human epithelioid cancer cell line A431 cells were suspended in DMEM, high glucose medium (manufactured by Life Technologies Corp.) containing 10% fetal bovine serum. Subsequently, each cell suspension was inoculated to each well of a 384-well flat-bottom microplate and cultured at 37° C. for 1 day in an incubator containing 5% carbon dioxide. The synthesis example compound was dissolved in DMSO, and the test compound was diluted into a concentration of 500 times the final concentration using DMSO. The solution of the test compound in DMSO was diluted with the medium used in the suspension of each cell line, and this solution was added at a final concentration of DMSO of 0.2% to each well of the cell culture plate, followed by further culture at 37° C. for 3 days in an incubator containing 5% carbon dioxide.

[4] = system: EGFR-overexpressing highly activated human epithelioid cancer cell line A431 cells; test: Cytostatic activity against EGFR-expressing cell line (A431), CellTiter-Glo; type: cell-based; settings: 3-day culture; read-out: A431 cell growth inhibitory activity IC50 value
From the text: as §1
(§2) Rate of growth inhibition (%)=(C−T)/(C)×100 T: Luminescence intensity of a well supplemented with the test compound C: Luminescence intensity of a well not supplemented with the test compound

[5] = system: HER2-overexpressing human breast cancer cell line SK-BR-3 cells; test: Cytostatic activity against HER2-expressing cell line (SK-BR-3), CellTiter-Glo; type: cell-based; settings: 3-day culture; read-out: SK-BR-3 cell growth inhibitory activity IC50 value
Description: as §2
as §1, with “breast” for “stomach”, “SK-BR-3” for “NCI-N87”, “McCoy's 5a” for “RPMI1640”, “The” for “Meanwhile, EGFR-overexpressing highly activated human epithelioid cancer cell line A431 cells were suspended in DMEM, high glucose medium (manufactured by Life Technologies Corp.) containing 10% fetal bovine serum. Subsequently, each”, “into” for “into a concentration of”, “times as high concentration as” for “times”

[6] = Capecitabine 359 mg/kg/day p.o. Days 1-14
[7] = Capecitabine 809 mg/kg/day p.o. Days 1-14

Row | SMILES | BWC (%) Day 15 Mean [1, 6] | RTV Day 15 Mean ± SD [1, 6] | T/C (%) [1, 6] | BWC (%) Day 15 Mean [1, 7] | RTV Day 15 Mean ± SD [1, 7] | T/C (%) [1, 7] | RTV on Day 15 compared with the control group (in words) ([1]; Dunnett's test) | pIC50 [2] | pIC50 [3] | pIC50 [4] | pIC50 [5]
1 | CCCCCOC(=O)Nc1nc(=O)n([C@@H]2O[C@H](C)[C@@H](O)[C@H]2O)cc1F [Capecitabine, capecitabine] | 7.51% | 1.26 ± 0.21 | 30.4% | −5.30% | 1.12 ± 0.18 | 27.1% | significantly lower |  |  |  | 
2 | C=CC(=O)N1CCC[C@@H](n2nc(C(=O)Nc3ccc(CC(=O)N(C)C)cc3Cl)c3c(N)ncnc32)C1 [compound 6] |  |  |  |  |  |  |  | 8.40 | 8.15 | 5.89 | 7.85
3 | C=CC(=O)N1CCC[C@@H](n2nc(C(=O)Nc3ccc(OC(=O)N(C)C)cc3C)c3c(N)ncnc32)C1 [compound 26] |  |  |  |  |  |  |  | 8.15 | 8.30 | 6.01 | 8.10
4 | C=CC(=O)N1CCC[C@@H](n2nc(C(=O)Nc3ccc(CC(=O)N(C)C)cc3C)c3c(N)ncnc32)C1 [compound 4] |  |  |  |  |  |  |  | 7.92 | 7.92 | 5.58 | 7.80
5 | C=CC(=O)N1CCC[C@@H](n2nc(C(=O)Nc3cc(C)c(CC(=O)N(C)C)cc3Cl)c3c(N)ncnc32)C1 [compound 2] |  |  |  |  |  |  |  | 8.08 | 7.35 | 5.57 | 7.52
6 | C=CC(=O)N1CCC[C@@H](n2nc(C(=O)Nc3cc(Cl)c(CC(=O)N(C)C)cc3C)c3c(N)ncnc32)C1 [compound 19] |  |  |  |  |  |  |  | 8.00 | 7.92 | 5.90 | 7.62
7 | C=CC(=O)N1CCC[C@@H](n2nc(C(=O)Nc3ccc(CC(=O)N(C)C)c(C)c3Cl)c3c(N)ncnc32)C1 [compound 3] |  |  |  |  |  |  |  | 8.15 | 7.57 | 5.47 | 8.05
8 | C=CC(=O)N1CCC[C@@H](n2nc(C(=O)Nc3ccc(CC(=O)N(C)C)c(F)c3OC)c3c(N)ncnc32)C1 [compound 14] |  |  |  |  |  |  |  | 8.34 | 8.40 | 6.31 | 8.00
9 | C=CC(=O)N1CCC[C@@H](n2nc(C(=O)Nc3ccc(OC(=O)N(C)C)c(Cl)c3)c3c(N)ncnc32)C1 [compound 29] |  |  |  |  |  |  |  | 8.19 | 7.34 | 5.65 | 7.36
